In patent US20220378744A1, “COMPOUNDS FOR TREATING PROLIFERATOR-ACTIVATED RECEPTORS (PPAR) MEDIATED DISEASES OR CONDITIONS” (MEDIPURE PHARMACEUTICALS INC., priority 2021, published 2022):

Legend:
[1] = tested on: TNFα/IL-17A-stimulated HaCaT cells; test: Anti-inflammatory effect of combined test compounds (Abn-CBD/CBD and PPAR agonists) in TNFα/IL-17A-stimulated HaCaT cells; format: cell-based, human
Protocol: HaCaT cells were maintained as described above in DMEM high glucose (4.5 g/L) medium supplemented with 10% FBS and 1% (v/v) penicillin/streptomycin solution (Invitrogen, Thermo Fisher) and kept in an incubator at 37° C. with 5% CO2. For experiments the cells were seeded at 5×10^4 cells/well in 0.5 mL of medium to a 24-well culture plate (Nunc, Thermo Fisher) and incubated overnight. The old medium in the culture plates was discarded and the corresponding stimulant, TNFα/IL-17A (R&D Systems) at 2 ng/mL each, with or without test chemicals in 0.5 mL of fresh medium was added to each cell well in the plate. There were duplicate wells for each treatment. The plate was incubated for another 24 h and the supernatant was collected for cytokine analysis, namely IL-6 and IL-8, using ELISA kits (Thermo Fisher).

[2] = tested on: IMQ-induced psoriasis in BALB/c mice; test: IMQ-induced psoriasis model in BALB/c mice, topical creams, PASI score; format: in vivo; details: for tolerability in mice / visual damage on the skin: topical, seven-day consecutive treatment; for tolerability in mice: even at 10% creams; for visual damage on the skin: up to 10% creams
Protocol: The animal experiment is conducted in accordance with the Guidelines for the Institutional Animal Care and Use Committee. Both male and female BALB/c mice from Rodenta Bioserve, India, at 7-8 weeks of age and 20-25 gram of body weight are housed in a laboratory environment with constant temperature (24.0±1.0° C.) and relative humidity (45.0-55.0%) on a 12 h light/dark cycles. These animals are provided free access to unlimited amounts of food and water during the entire experiment. The animals are divided into 12 groups of 8 mice each and shaved on the back on day 0 for an area of 2×2 cm . Human-like psoriasis in mice is induced by topical application of 5% Imiquimod (IMQ) procured from AK Scientific, USA, and formulated in the base cream at desired percentages in-house, in shaved area and right ear (0.5×0.5 cm). […] Vehicle, clobetasol propionate (CP, Sigma. 0.05% w/w; positive control), test creams, and CBD (Ilesol Pharmaceuticals), respectively, is applied topically on both the shaved back (80 mg cream) and the right ear (20 mg cream) of mice, once daily from day 10 to day 16. The study ends at day 17. At stated time points the severity of psoriasis is evaluated using the PASI score (Psoriasis Area Severity Index: sum of erythema, scaling and thickening, scored independently from 0 to 4 for each mouse; max PASI score=12). Tissue and blood samples are collected for histopathology, biochemistry and immunoassay from each animal at various points.

[3] = tested on: IMQ-stimulated HaCaT cells; test: Anti-inflammatory effect, IMQ-stimulated HaCaT cell model (IL-6, IL-8 ELISA); format: cell-based, human; details: IMQ 50 μM, 24 h, vs control
Protocol: (§1) Three in vitro models based on HaCaT cell culture were tested. HaCaT cells were maintained as described above in DMEM high glucose (4.5g/L) medium supplemented with 10% FBS and 1% (v/v) penicillin/streptomycin solution (Invitrogen, Thermo Fisher) and kept in an incubator at 37° C. with 5% CO2. For experiments, the cells were seeded at 5×10^4 cells/well in 1 mL of medium to a 24-well culture plate (Nunc, Thermo Fisher) and incubated overnight.
(§2) (1) For the imiquimod (IMQ)-stimulated HaCaT model, IMQ (Alfa Aesar) at 50 μM final concentration was used in the experiments; (2) for TNFα/IL-17A-stimulated-HaCaT model, 2 ng/mL of each cytokine (R&D Systems) was used; and (3) for the lipopolysaccharide (LPS, Sigma) simulated HaCaT cell model, 20 μg/mL LPS was used. For drug chemical treatment the old medium in the culture plates described above was discarded and the corresponding stimulant (IMQ, TNFα/IL-17A, or LPS) with or without test chemicals in 0.5 mL fresh medium was added to each cell well. There were duplicate wells for each treatment. The plate was incubated for another 24 h and the supernatant was collected for cytokine analysis, namely IL-6 and IL-8, using the corresponding ELISA kits (Thermo Fisher).

[4] = target: T1, human PPARγ (NR1C3) (Homo sapiens, UniProt P37231); test: Cell-based human PPARγ transactivation (nuclear receptor reporter) assay; details: FIG. 3
T1 sequence (P37231 1-505): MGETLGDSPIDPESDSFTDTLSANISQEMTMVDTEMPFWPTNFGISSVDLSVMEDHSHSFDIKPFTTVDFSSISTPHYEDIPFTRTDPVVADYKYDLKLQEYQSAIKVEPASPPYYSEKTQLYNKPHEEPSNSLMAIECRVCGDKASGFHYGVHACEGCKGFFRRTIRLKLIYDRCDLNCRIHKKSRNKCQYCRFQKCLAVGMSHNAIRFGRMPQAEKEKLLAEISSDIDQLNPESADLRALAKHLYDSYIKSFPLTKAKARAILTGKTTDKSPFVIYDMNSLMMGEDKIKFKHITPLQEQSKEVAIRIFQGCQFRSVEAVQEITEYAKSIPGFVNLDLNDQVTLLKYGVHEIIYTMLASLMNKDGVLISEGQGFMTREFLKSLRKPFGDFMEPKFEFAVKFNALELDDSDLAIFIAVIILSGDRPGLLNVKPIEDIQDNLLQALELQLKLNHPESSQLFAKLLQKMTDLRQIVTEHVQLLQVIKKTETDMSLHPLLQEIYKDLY
Protocol: (§3) The assay was performed using cell-based human PPAR nuclear receptor reporter assay kits (NR1C1 for PPARα; NR1C2 for PPARδ/β, and NR1C3 for PPARγ, Indigo Biosciences) by following the manufacturer's instruction. In brief, PPAR reporter cells were added to CRM medium (Indigo Biosciences), seeded into wells of a 96-well culture plate and incubated for 5 hours in a cell culture incubator at 37° C. with 5% CO2. The medium was then removed, and the cells were treated with test compounds at different concentrations in CSM medium (Indigo Biosciences) for 24 h inside the incubator. […] DMSO (Sigma) at 0.1% (v/v) was used as negative baseline control (C). Each treatment was tested in duplicate wells. At the end point of the experiments, the treatment medium was discarded and Luciferase Detection Reagent (Indigo Biosciences) was added. Following a 10-minute rest period, the intensity of light emission (in units of “Relative Light Units; RLU”) from each assay well was quantified using a plate-reading luminometer (Synergy H1 plate reader, BioTek). In addition, live cell multiplex assay (Indigo Biosciences) was combined with the activation assays to detect potential cytotoxic effect, if any, of the test chemicals to normalize the signals as per manufacturer's instruction.

[5] = target: T2, human PPARα (NR1C1) (Homo sapiens, UniProt Q07869); test: Cell-based human PPARα transactivation (nuclear receptor reporter) assay; details: luciferase reporter cells, 24 h treatment, FIG. 1
T2 sequence (Q07869 1-468): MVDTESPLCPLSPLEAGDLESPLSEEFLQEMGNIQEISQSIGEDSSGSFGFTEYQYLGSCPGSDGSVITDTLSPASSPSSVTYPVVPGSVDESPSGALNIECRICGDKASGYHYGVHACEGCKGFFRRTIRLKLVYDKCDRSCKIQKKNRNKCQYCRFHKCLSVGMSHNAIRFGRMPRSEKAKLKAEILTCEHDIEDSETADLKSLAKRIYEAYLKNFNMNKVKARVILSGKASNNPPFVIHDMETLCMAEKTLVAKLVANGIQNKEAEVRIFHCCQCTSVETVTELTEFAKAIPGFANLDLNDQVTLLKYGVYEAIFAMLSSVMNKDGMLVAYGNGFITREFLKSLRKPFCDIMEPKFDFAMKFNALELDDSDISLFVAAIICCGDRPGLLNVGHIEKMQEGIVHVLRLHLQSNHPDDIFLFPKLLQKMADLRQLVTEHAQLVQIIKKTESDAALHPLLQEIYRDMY
Protocol: as §3

[6] = tested on: LPS-stimulated HaCaT cells; test: Anti-inflammatory effect, LPS-stimulated HaCaT cell model (IL-6, IL-8 ELISA); format: cell-based, human; details: LPS 20 μg/mL, 24 h
Protocol: as §1
as §2, with “Fisher). The experiments were repeated independently to confirm the observation.” for “Fisher).”

[7] = target: T3, human PPARδ/β (NR1C2) (Homo sapiens, UniProt Q03181); test: Cell-based human PPARδ/β transactivation (nuclear receptor reporter) assay; details: at tested concentrations
T3 sequence (Q03181 1-441): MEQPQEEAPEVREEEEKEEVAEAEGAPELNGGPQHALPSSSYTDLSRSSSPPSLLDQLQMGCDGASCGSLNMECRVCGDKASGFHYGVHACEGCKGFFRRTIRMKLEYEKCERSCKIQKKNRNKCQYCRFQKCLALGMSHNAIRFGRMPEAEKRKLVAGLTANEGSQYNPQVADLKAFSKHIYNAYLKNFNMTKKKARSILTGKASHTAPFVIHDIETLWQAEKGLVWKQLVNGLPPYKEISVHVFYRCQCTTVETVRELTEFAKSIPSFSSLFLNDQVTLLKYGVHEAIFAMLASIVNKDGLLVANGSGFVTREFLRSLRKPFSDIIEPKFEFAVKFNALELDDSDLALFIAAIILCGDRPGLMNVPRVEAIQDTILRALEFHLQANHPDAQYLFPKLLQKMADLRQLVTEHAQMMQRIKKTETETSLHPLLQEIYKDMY
Protocol: as §3

[8] = initial studies, range 1 to 30 μM, HaCaT model
[9] = creams at 1% and 5%, once daily day 10 to day 16, FIG. 11

C=C(C)[C@@H]1CCC(C)=C[C@H]1c1c(O)cc(CCCCC)cc1O [CBD, cannabidiol, reference compound]
HaCaT growth ([1]; at higher concentrations, e.g. 30 μM): inhibit HaCaT growth
production of IL-6 [1, 8]: reduced
production of IL-8 [1, 8]: reduced
tolerability in mice [2]: well tolerated
visual damage on the skin [2]: No visual damage

CCCc1cc(C(=O)c2ccc(F)cc2)ccc1OCCCOc1ccc2c(cnn2CC(=O)OC)c1 [MP-152, methyl 2-(5-(3-(4-(4-fluorobenzoyl)-2-propylphenoxy)nropoxy)-1H-indazol-1-yl)acetate]
production of IL-6 ([3]; compound at 2.5 μM): significantly inhibited
production of IL-6 ([3]; compound at 25 μM): significantly inhibited
reducing the PASI score compared with CP [2, 9]: more effective than CP
reducing the PASI score, rank among the treatment groups [2, 9]: most active
tolerability in mice [2]: well tolerated
visual damage on the skin [2]: No visual damage
PPARγ transactivation: concentration at which (or starting at which) active [4]: 1,000 nM
PPARα transactivation: concentration at which (or starting at which) active [5]: 1 µM
reduction of IL-8 production compared with rosiglitazone and fenofibrate ([6]; 25 μM): more active
production of IL-6 ([6]; compound at 25 uM): reduced

CSc1ccc(C(=O)/C=C/c2cc(C)c(OC(C)(C)C(=O)O)c(C)c2)cc1 [elafibranor]
PPARδ/β transactivation activity [7]: showed activities

CCO[C@@H](Cc1ccc(OCCn2c(C)ccc2-c2ccc(SC)cc2)cc1)C(=O)O [saroglitazar]
PPARδ/β transactivation activity [7]: showed activities
